19 compounds from patent publication US20250163047A1, “HETEROCYCLIC COMPOUNDS, COMPOSITIONS THEREOF, AND METHODS OF TREATMENT THEREWITH” (BeiGene, Ltd., priority 2022, published 2025) can be followed below.

Assay [1] concerns the target T1, Cbl-b (aa36-427) (Homo sapiens, UniProt Q13191).
T1 construct: Cbl-b (aa36-427, in-house); made in house
Nature of the assay: Co-expressed Cbl-b with BirA biochemical assay (CBLB/E2-Ub binding, HTRF). Particulars: 0.6 nM Cbl-b co-expressed with BirA, HTRF; read-out: co-express CBLB/E2-Ub-binding assay IC50. The text has this:
(§1) The assay in the absence of a Cbl-b/Cbl inhibitor, where phosphorylation of Cbl-b/Cbl by the Src kinase allows UbcH5B-Ub to bind to Cbl-b/Cbl and brings the Bodipy-Fluorescein tagged ubiquitin in proximity to the streptavidin-terbium bound to the N-terminal biotinylated Avi-tagged Cbl-b/Cbl. […] The lack of a FRET signal indicates Cbl-b/Cbl is inhibited by the Cbl-b/Cbl inhibitor.
For orientation: Time-resolved FRET reads energy transfer from a long-lived donor to a nearby acceptor.

For assay [2], the target named is T2, Cbl (aa49-434) (Homo sapiens, UniProt P22681).
T2 construct: Cbl (aa49-434, in-house); made in house
T2 sequence (P22681 49-434): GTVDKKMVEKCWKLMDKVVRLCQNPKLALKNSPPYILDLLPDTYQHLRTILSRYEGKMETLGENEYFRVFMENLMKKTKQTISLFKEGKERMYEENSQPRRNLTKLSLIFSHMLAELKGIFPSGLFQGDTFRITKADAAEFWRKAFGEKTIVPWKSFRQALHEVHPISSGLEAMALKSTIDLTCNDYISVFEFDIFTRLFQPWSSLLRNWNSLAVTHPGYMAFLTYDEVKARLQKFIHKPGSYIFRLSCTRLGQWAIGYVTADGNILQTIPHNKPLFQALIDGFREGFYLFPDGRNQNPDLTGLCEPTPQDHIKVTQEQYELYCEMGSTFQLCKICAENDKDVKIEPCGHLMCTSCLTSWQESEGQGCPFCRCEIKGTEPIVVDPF
Nature of the assay: Co-expressed Cbl with BirA biochemical assay (CBL/E2-Ub binding, HTRF). Particulars: 0.6 nM Cbl co-expressed with BirA, read-out: co-express CBL/E2-Ub-binding assay IC50.
Excerpt: as §1

Each structure is given as a SMILES string.

T1 sequence (Q13191 36-427): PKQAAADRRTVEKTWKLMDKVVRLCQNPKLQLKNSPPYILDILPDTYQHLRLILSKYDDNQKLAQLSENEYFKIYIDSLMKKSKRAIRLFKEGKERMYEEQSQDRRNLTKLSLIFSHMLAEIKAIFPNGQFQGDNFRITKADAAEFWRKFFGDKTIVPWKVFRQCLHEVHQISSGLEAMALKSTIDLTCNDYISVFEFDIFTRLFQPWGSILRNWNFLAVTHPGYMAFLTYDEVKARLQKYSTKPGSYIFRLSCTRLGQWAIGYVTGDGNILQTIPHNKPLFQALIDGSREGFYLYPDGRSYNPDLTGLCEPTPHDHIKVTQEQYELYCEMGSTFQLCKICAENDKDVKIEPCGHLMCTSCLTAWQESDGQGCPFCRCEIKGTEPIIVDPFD

Consider `Cn1cnnc1[C@]1(c2cccc(NC(=O)c3cc(CNCC4CCC4)c4[nH]ccc4n3)c2)C[C@H](C)C1` [Compound B32, 7-(((cyclobutylmethyl)amino)methyl)-N-(3-((1s, 3s)-3-methyl-1-(4-methyl-4H-1,2,4-triazol-3-yl)cyclobutyl)phenyl)-1H-pyrrolo[3,2-b]pyridine-5-carboxamide], for which the IC50 is 1 nM in assay [1] and 1.5 nM in assay [2].

Take `Cn1cnnc1[C@]1(c2cccc(NC(=O)c3cc(CNCC4CCC4)c4c(n3)C(C)(C)CC4)c2)C[C@H](C)C1` [Compound C57, 4-(((cyclobutylmethyl)amino)methyl)-7,7-dimethyl-N-(3-((1s, 3s)-3-methyl-1-(4-methyl-4H-1,2,4-triazol-3-yl)cyclobutyl)phenyl)-6,7-dihydro-5H-cyclopenta[b]pyridine-2-carboxamide]: the figures for the IC50 in assay [1] and in assay [2] were 0.9 nM and 3.4 nM, respectively.

Turning to `CC(C)CNCc1cc(C(=O)Nc2cccc([C@]3(c4nncn4C)C[C@@H](CC#N)C3)c2)nc2cc[nH]c12` [Compound B29, N-(3-((1s, 3s)-3-(cyanomethyl)-1-(4-methyl-4H-1,2,4-triazol-3-yl)cyclobutyl)phenyl)-7-((isobutylamino)methyl)-1H-pyrrolo[3,2-b]pyridine-5-carboxamide], the IC50 in assay [1] amounted to 1.2 nM; in assay [2] it was 2.3 nM.

`C[C@H](NCc1cc(C(=O)Nc2cccc([C@]3(c4nncn4C)C[C@@H](C)C3)c2)nc2c1OCC2(C)C)C1CCCC1` [Compound C34, 7-((((S)-1-cyclopentylethyl)amino)methyl)-3,3-dimethyl-N-(3-((1s,3R)-3-methyl-1-(4-methyl-4H-1,2,4-triazol-3-yl)cyclobutyl)phenyl)-2,3-dihydrofuro[3,2-b]pyridine-5-carboxamide]: the values for the IC50 in assay [1] and in assay [2] were 1.3 nM and 5.1 nM, respectively.

In the case of `Cn1cnnc1[C@]1(c2cccc(NC(=O)c3cc(CNCC4CCCC4)cn4c(F)cnc34)c2)C[C@H](C)C1` [Compound A51, 6-(((cyclopentylmethyl)amino)methyl)-3-fluoro-N-(3-((1s, 3s)-3-methyl-1-(4-methyl-4H-1,2,4-triazol-3-yl)cyclobutyl)phenyl)imidazo[1,2-a]pyridine-8-carboxamide], the IC50 in assay [1] turned out to be 1.5 nM; in assay [2], 4.3 nM.

For `Cn1cnnc1[C@]1(c2cccc(NC(=O)c3cc(CNCC4CCCCC4)c4c(n3)C(C)(C)CC4)c2)C[C@H](CC#N)C1` [Compound C14, N-(3-((1s, 3s)-3-(cyanomethyl)-1-(4-methyl-4H-1,2,4-triazol-3-yl)cyclobutyl)phenyl)-4-(((cyclohexylmethyl)amino)methyl)-7,7-dimethyl-6,7-dihydro-5H-cyclopenta[b]pyridine-2-carboxamide], the results for the IC50 in assay [1] and in assay [2] were 2 nM and 6.6 nM, respectively.

With `Cn1cnnc1[C@]1(c2cccc(NC(=O)c3cc(CNC4(C)CC4)cn4c(Cl)cnc34)c2)C[C@H](CC#N)C1` [Compound A41, 3-chloro-N-(3-((1s, 3s)-3-(cyanomethyl)-1-(4-methyl-4H-1,2,4-triazol-3-yl)cyclobutyl)phenyl)-6-(((1-methylcyclopropyl)amino)methyl)imidazo[1,2-a]pyridine-8-carboxamide], the IC50 stood at 0.2 nM in assay [1] and 0.9 nM in assay [2].

As for `Cc1cnc2c(C(=O)Nc3cncc([C@]4(c5nncn5C)C[C@@H](C)C4)c3)cc(CN[C@@H](C)C3CC3)cn12` [Compound A64, 6-((((S)-1-cyclopropylethyl)amino)methyl)-3-methyl-N-(5-((1s,3R)-3-methyl-1-(4-methyl-4H-1,2,4-triazol-3-yl)cyclobutyl)pyridin-3-yl)imidazo[1,2-a]pyridine-8-carboxamide], the IC50 turned out to be 2.2 nM in assay [1] and 26 nM in assay [2].

Turning to `CC(C)CNCc1cc(C(=O)Nc2cccc([C@]3(c4nncn4C)C[C@@H](C)C3)c2)c2nccn2c1` [Compound A18, 6-((isobutylamino)methyl)-N-(3-((1s, 3s)-3-methyl-1-(4-methyl-4H-1,2,4-triazol-3-yl)cyclobutyl)phenyl)imidazo[1,2-a]pyridine-8-carboxamide], the IC50 in assay [1] was 1.1 nM; in assay [2], 6 nM.

In the case of `Cn1cnnc1[C@]1(c2cccc(NC(=O)c3cc(CN[C@H]4CCC(F)(F)C4)c4[nH]ccc4n3)c2)C[C@H](CC#N)C1` [Compound B17, N-(3-((1s,3S)-3-(cyanomethyl)-1-(4-methyl-4H-1,2,4-triazol-3-yl)cyclobutyl)phenyl)-7-((((R)-3,3-difluorocyclopentyl)amino)methyl)-1H-pyrrolo[3,2-b]pyridine-5-carboxamide], the IC50 came out at 1.22 nM in assay [1] and 3.84 nM in assay [2].

`C[C@H](NCc1cc(C(=O)Nc2cccc([C@]3(c4nncn4C)C[C@@H](C)C3)c2)nc2cc[nH]c12)C1CC1` [Compound B3, 7-((((S)-1-cyclopropylethyl)amino)methyl)-N-(3-((1s,3R)-3-methyl-1-(4-methyl-4H-1,2,4-triazol-3-yl)cyclobutyl)phenyl)-1H-pyrrolo[3,2-b]pyridine-5-carboxamide]: the IC50 came out at 0.7 nM in assay [1] and 1.8 nM in assay [2].

`Cn1cnnc1[C@]1(c2cncc(NC(=O)c3cc(CNC4(C)CCC4)c4[nH]cc(F)c4n3)c2)C[C@H](C)C1` [Compound B49, 3-fluoro-N-(5-((1s, 3s)-3-methyl-1-(4-methyl-4H-1,2,4-triazol-3-yl)cyclobutyl)pyridin-3-yl)-7-(((1-methylcyclobutyl)amino)methyl)-1H-pyrrolo[3,2-b]pyridine-5-carboxamide]: the figures for the IC50 in assay [1] and in assay [2] were 3.2 nM and 14 nM, respectively.

As for `Cn1cnnc1[C@]1(c2cccc(NC(=O)c3cc(CNC4(C)CC4)cc4ccnn34)c2)C[C@H](C)C1` [Compound A91, N-(3-((1s, 3s)-3-methyl-1-(4-methyl-4H-1,2,4-triazol-3-yl)cyclobutyl)phenyl)-5-(((1-methylcyclopropyl)amino)methyl)pyrazolo[1,5-a]pyridine-7-carboxamide], the results for the IC50 in assay [1] and in assay [2] were 0.6 nM and 4.1 nM, respectively.

In the case of `Cn1cnnc1[C@]1(c2cncc(NC(=O)c3cc(CNC4(C)CC4)c4[nH]ccc4n3)c2)C[C@H](C)C1` [Compound B44, N-(5-((1s, 3s)-3-methyl-1-(4-methyl-4H-1,2,4-triazol-3-yl)cyclobutyl)pyridin-3-yl)-7-(((1-methylcyclopropyl)amino)methyl)-1H-pyrrolo[3,2-b]pyridine-5-carboxamide], the results for the IC50 in assay [1] and in assay [2] were 1.9 nM and 9 nM, respectively.

On to `Cc1c[nH]c2c(CNCC(C)C)cc(C(=O)Nc3cncc([C@]4(c5nncn5C)C[C@@H](C)C4)c3)nc12` [Compound B21, 7-((isobutylamino)methyl)-3-methyl-N-(5-((1s, 3s)-3-methyl-1-(4-methyl-4H-1,2,4-triazol-3-yl)cyclobutyl)pyridin-3-yl)-1H-pyrrolo[3,2-b]pyridine-5-carboxamide], for which the IC50 in assay [1] amounted to 2.2 nM; in assay [2] it was 7.5 nM.

Consider `Cn1cnnc1[C@]1(c2cccc(NC(=O)c3cc(CNCC4CCC4)cn4ccnc34)c2)C[C@H](CC#N)C1` [Compound A43, N-(3-((1s, 3s)-3-(cyanomethyl)-1-(4-methyl-4H-1,2,4-triazol-3-yl)cyclobutyl)phenyl)-6-(((cyclobutylmethyl)amino)methyl)imidazo[1,2-a]pyridine-8-carboxamide], for which the IC50 in assay [1] stood at 2 nM; in assay [2], 12 nM.

As for `C[C@H]1CCCN(Cc2cc(C(=O)Nc3cccc([C@]4(c5nncn5C)C[C@@H](CC#N)C4)c3)nc3c2OCC3(C)C)C1` [Compound C10, 3,3-dimethyl-7-{[(3S)-3-methylpiperidin-1-yl]methyl}-N-{3-[(1s, 3s)-3-(cyanomethyl)-1-(4-methyl-1,2,4-triazol-3-yl)cyclobutyl]phenyl}-2H-furo[3,2-b]pyridine-5-carboxamide], the figures for the IC50 in assay [1] and in assay [2] were 2.3 nM and 26.6 nM, respectively.

As to `Cc1cnc2c(C(=O)Nc3cncc([C@]4(c5nncn5C)C[C@@H](C)C4)c3)cc(CNC3(C)CCC3)cn12` [Compound A80, 3-methyl-N-(5-((1s, 3s)-3-methyl-1-(4-methyl-4H-1,2,4-triazol-3-yl)cyclobutyl)pyridin-3-yl)-6-(((1-methylcyclobutyl)amino)methyl)imidazo[1,2-a]pyridine-8-carboxamide], the figures for the IC50 in assay [1] and in assay [2] were 2 nM and 13 nM, respectively.

`Cn1cnnc1[C@]1(c2cccc(NC(=O)c3cc(CNC4(C)CC4)c4[nH]cc(F)c4n3)c2)C[C@H](CC#N)C1` [Compound B54, N-(3-((1s, 3s)-3-(cyanomethyl)-1-(4-methyl-4H-1,2,4-triazol-3-yl)cyclobutyl)phenyl)-3-fluoro-7-(((1-methylcyclopropyl)amino)methyl)-1H-pyrrolo[3,2-b]pyridine-5-carboxamide]: the figures for the IC50 in assay [1] and in assay [2] were 1.2 nM and 12 nM, respectively.
